Laboratory results published in patent publication US11332438B2, “Creatine prodrugs, compositions and methods of use thereof” (Ultragenyx Pharmaceutical Inc., priority 2017, dated 2022).

Tests used:
[1] = target: T1, recombinant human FAAH enzyme (rFAAH) (Homo sapiens, UniProt O00519); assay: Direct prodrug cleavage with recombinant human FAAH enzyme (rFAAH): d3-Cr release and d3-Crn cyclization; assay type: biochemical; details: 200 μM prodrug, 3 h; result in words
T1 sequence (O00519 1-579): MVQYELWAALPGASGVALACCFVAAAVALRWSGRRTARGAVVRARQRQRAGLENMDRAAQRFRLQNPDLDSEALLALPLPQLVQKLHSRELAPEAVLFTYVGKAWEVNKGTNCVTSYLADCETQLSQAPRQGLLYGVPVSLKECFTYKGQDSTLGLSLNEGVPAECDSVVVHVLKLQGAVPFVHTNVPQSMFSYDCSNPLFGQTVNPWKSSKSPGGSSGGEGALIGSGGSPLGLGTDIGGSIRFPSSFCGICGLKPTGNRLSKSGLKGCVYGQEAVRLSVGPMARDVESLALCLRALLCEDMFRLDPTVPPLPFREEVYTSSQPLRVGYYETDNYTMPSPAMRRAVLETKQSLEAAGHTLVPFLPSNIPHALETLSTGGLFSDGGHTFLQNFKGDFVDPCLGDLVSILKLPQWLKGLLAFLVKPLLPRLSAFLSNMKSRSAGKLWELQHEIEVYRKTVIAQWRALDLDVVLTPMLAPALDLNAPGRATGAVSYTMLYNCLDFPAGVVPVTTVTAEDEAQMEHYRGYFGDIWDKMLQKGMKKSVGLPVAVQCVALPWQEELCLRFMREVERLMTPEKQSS
Method: For assessment of the ability of prodrugs to release creatine, and to release creatine preferentially to unwanted cyclization to creatinine, d3-labeled (deuterium labeled methyl group) prodrugs are incubated with brain homogenates (e.g., mouse, human) specially prepared to preserve FAAH activity or with rFAAH for direct cleavage study. The use of d3-labelled prodrugs is essential in order to distinguish prodrug-derived creatine (d3-creatine) from high concentrations of endogenous (non-labeled) creatine. […] Prodrugs are tested at final concentrations of 20 μM and 200 μM. Approximately 3-4 mg of homogenate is used for each reaction. Co-factor (NADPH) is included at a final concentration of 1 mM. FAAH activity is confirmed by conversion of 7-amino-4-methyl Coumarin-Arachidonamide to 7-amino-4-methyl Coumarin by fluorescent assay. Negative controls include incubations without brain homogenate/rFAAH (but with NADPH) or 65° C. heat inactivated brain homogenate/rFAAH to assess non-enzymatic prodrug cleavage under the conditions of the assay and FAAH inhibitor […] at the concentration of 1 μM. Prodrug incubations are prepared by addition of 8 μL of prodrug stock solution (500 or 5000 μM in DMSO or DMSO/methanol) to assay buffered, followed by addition of brain homogenate/rFAAH. […] The samples are centrifuged at 15890×g for 10 minutes at 4° C., followed by transfer of the supernatants for storage at −20° C. pending LC-MS/MS analysis. Sample supernatants are analyzed by LC-MS/MS for determination of d3-prodrug, d3-creatine and d3-creatinine levels.
Deuterated creatine prodrugs were tested in 3 different in vitro assays to assess d3-creatine (d3-Cr) release and cyclization to form d3-creatinine (d3-Crn). These assays were 1) direct cleavage with recombinant human FAAH enzyme (rFAAH), 2) cleavage in mouse brain homogenates (MBH), and 3) human brain homogenates (HBH).
Creatine prodrug cleavage efficiency was determined by percentage of net d3-Cr release in μM (positive reaction subtracted from negative control of no brain homogenate/rFAAH or inactivated brain homogenate/rFAAH) over nominal input concentration of 200 μM prodrug at 3 h. Propensity for creatinine cyclization was determined by percentage of d3-Crn generated in μM in positive reaction over nominal input concentration of 200 μM prodrug at 3 h.

[2] = Prodrug cleavage in human brain homogenates (HBH): d3-Cr release and d3-Crn cyclization; assay type: in vitro ADME; details: in vitro cleavage assays (Table 3A)
How it was run: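 d3-labelled prodrugs (20 and 200 μM final) incubated with FAAH-preserving human brain homogenate (~3-4 mg) or rFAAH plus 1 mM NADPH; controls without enzyme, heat-inactivated enzyme, or 1 μM FAAH inhibitor […]. LC-MS/MS of d3-Cr and d3-Crn at 3 h, each expressed as percent of 200 μM input, net of control for d3-Cr.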

[3] = In vivo IV dosing in CrT KO mice: prodrug, d3-Cr and d3-Crn in brain (Table 5); details: CrT KO mouse brain, BQL prodrug = 41.2 ng/mL
How it was run: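 CrT KO mice received prodrugs by IV injection at 10, 15 or 25 mg/kg. Brains were collected, flash frozen and homogenized in 100 mM KPI buffer with anti-proteases. Prodrug, d3-Cr and d3-Crn were quantified by LC-MS/MS and expressed as brain concentration (macrocycles) or AUC over time (linear prodrugs).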

creatine transporter = target: T2, creatine transporter (Rattus norvegicus, UniProt P28570); assay: Co-administration with creatine transporter blocker beta-guanidinopropionic acid (GPA), d3-Cr in WT rat brain; assay type: in vivo
T2 construct: from tissue; host or cells: WT rat, in vivo (brain / blood-brain barrier)
T2 sequence (P28570 1-635): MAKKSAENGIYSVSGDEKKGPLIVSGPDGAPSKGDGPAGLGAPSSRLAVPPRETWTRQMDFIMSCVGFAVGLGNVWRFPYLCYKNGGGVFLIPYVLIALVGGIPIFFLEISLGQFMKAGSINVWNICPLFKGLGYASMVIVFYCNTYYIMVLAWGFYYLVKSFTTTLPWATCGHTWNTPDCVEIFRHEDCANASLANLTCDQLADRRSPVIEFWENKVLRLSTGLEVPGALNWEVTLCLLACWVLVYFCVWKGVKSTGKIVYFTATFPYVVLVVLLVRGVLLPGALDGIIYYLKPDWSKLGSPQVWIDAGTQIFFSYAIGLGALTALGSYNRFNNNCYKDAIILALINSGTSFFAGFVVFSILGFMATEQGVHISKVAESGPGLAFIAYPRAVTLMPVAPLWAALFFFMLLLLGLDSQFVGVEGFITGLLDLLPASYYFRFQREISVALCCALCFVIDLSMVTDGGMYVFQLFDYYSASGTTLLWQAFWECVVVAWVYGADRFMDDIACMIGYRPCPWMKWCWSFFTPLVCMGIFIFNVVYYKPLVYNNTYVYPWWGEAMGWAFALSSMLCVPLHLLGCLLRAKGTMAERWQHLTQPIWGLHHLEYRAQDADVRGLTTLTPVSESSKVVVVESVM

SMILES	Prodrug Cleavage rFAAH d3-Crn release (yes/no) [1]	Prodrug Cleavage rFAAH net d3-Cr release (yes/no) [1]	d3-Crn (creatinine) cyclization in vitro (in words) [2]	d3-Crn (creatinine) cyclization in vitro (in words) ([2]; listed as Compound 8)	AUClast prodrug in the brain ([3]; IV 15 mg/kg)	levels of d3-Cr in WT rat brains with co-administration of GPA compared to dosing alone (creatine transporter)	AUClast prodrug in the brain ([3]; IV 10 mg/kg)
Cl.[H]/N=C(/NC(=O)CCCCCCC/C=C\CCCCCCCC)N(CC(=O)OCCCCCCC)C([2H])([2H])[2H] [Compound 2, (Z)-heptyl 2-(1-trideuteriomethyl-3-oleoylguanidino)acetate Hydrochloride]	yes	no					
Cl.[2H]C([2H])([2H])N(CC(=O)OCC)C(=N)NC(=O)CCCCCCCCCC [Compound 8]			predominantly creatinine cyclization	predominantly cyclized into creatinine	BQL	did not change	
Cl.[2H]C([2H])([2H])N(CC(=O)OCCCCCCC)C(=N)NC(=O)CCCCCCCCCCCC [Compound 11]	yes	no					BQL
